Test results from patent publication US20130014428A1, “METHODS OF MONITORING AND CONTROLLING THE WALNUT TWIG BEETLE, PITYOPHTHORUS JUGLANDIS” (The United States of America as Represented by the …, priority 2011, published 2013).

Key:
P. juglandis = test: GC-EAD (electroantennal detection) of volatile extract; set-up: species or system Pityophthorus juglandis; conditions: extract of J. hindsii with male and female P. juglandis feeding 45 hr
Description: Gas Chromatography-Electroantennal Detection (GC-EAD). GC-EAD analysis was performed on the extract of walnut (Juglans hindsii) with male and female P. juglandis feeding for 45 hr (pentane extract (7)). The sample was analyzed with an HP5890 GC with the following conditions: DB-5 column 30 m×0.32, oven 50° C. for 1 min, temperature programmed at 20° C./min to a final temperature of 280° C.

WTB [1] = test: Six release rate experiment, 4-unit Lindgren funnel traps; assay type: in vivo, Pityophthorus juglandis; conditions: for trap catches, female WTB / trap catches, male WTB: N=99
Description: In a separate experiment, the flight response of WTB to six release rates of 3-methyl-2-buten-1-ol was tested at the same location in early summer. The six release rates were: 1) 165 mg/d, from a capped 15 ml polyethylene bottle with a 0.48 cm hole drilled in the side of the cap, charged with 15 ml 3-methyl-2-buten-1-ol (Sigma-Aldrich); 2) 15-80 mg/d from the commercial LDPE plastic pouch (Contech); 3) 5 mg/d from a capped 15 ml polyethylene bottle charged with 15 ml 3-methyl-2-buten-1-ol (Sigma-Aldrich); 4) 5 mg/d from a capped 15 ml polyethylene bottle charged with 1 ml 3-methyl-2-buten-1-ol (Sigma-Aldrich); 5) 0.2 mg/d from a 400 μl closed Eppendorf polyethylene microcentrifuge tube charged with 300 μl 3-methyl-2-buten-1-ol (Sigma-Aldrich); and 6) an unbaited control. The 15 ml polyethylene bottles were purchased from Contech Enterprises (product #100000582/583); the 400 μl polyethylene Eppendorf microcentrifuge tubes were purchased from Evergreen Scientific (product #214-3417-020, Los Angeles, Calif.). These release devices were attached to 4-unit Lindgren funnel traps as described above. The six treatments were replicated in three spatial blocks and the treatments were re-randomized among the six trap stations in a block each time the traps were emptied (nearly every day). Statistical Analyses. Analysis of treatment effects for the pouch vs. bottle experiment was done by using a sign test. (See Zar, J. H. 2010. Biostatistical Analysis. 5th ed. Pearson Prentice Hall, Englewood Cliffs, N.J.) The other four experiments were analyzed for treatment effect by using Friedman's non-parametric analysis of variance. Id. In all experiments, males and females were analyzed separately. All treatments within experiments yielding a significant treatment effect were compared by using an a posteriori Nemenyi test with experimentwise α=0.05. Id. For all experiments, differences among proportions of female WTB responding to treatments were analyzed by comparing 95% confidence intervals determined with the Clopper-Pearson method. Id.

WTB [2] = test: Example 2 Field Test 1: X in combination with X-3 and X-2; assay type: in vivo, Pityophthorus juglandis; conditions: 4-unit Lindgren funnel traps
Description: Field Bioassays of 3-methyl-2-buten-1-ol in combination with other compounds. The flight response of WTB to 3-methyl-2-buten-1-ol in combination with other compounds was also tested. […] Louis, Mo. […] The five treatments were replicated in three spatial blocks and the treatments were re-randomized among the five trap stations in a block each time the traps were emptied (nearly every day). [table] Statistical Analyses. Analysis of treatment effects for the pouch vs. bottle experiment was done by using a sign test. (See Zar, J. H. 2010. Biostatistical Analysis. 5th ed. Pearson Prentice Hall, Englewood Cliffs, N.J.) The other four experiments were analyzed for treatment effect by using Friedman's non-parametric analysis of variance. Id. In all experiments, males and females were analyzed separately. All treatments within experiments yielding a significant treatment effect were compared by using an a posteriori Nemenyi test with experimentwise α=0.05. Id. For all experiments, differences among proportions of female WTB responding to treatments were analyzed by comparing 95% confidence intervals determined with the Clopper-Pearson method. Id.

WTB [3] = test: Trap height: 4-unit Lindgren funnel traps baited with X; assay type: in vivo, Pityophthorus juglandis; conditions: for trap catches, female WTB / trap catches, male WTB: 15 to 80 mg/d
Description: In another experiment, the effect of trap height on the flight response of WTB was also tested with 4-unit Lindgren funnel traps at Wolfskill Experimental Orchards from late summer to early fall. The traps were each baited with the commercial version of 3-methyl-2-buten-1-ol (15 to 80 mg/d, Contech pouch) and placed at 45, 123, 199, and 271 cm (hereafter 0.5, 1.2, 2.0, and 2.7 m) from the orchard floor (measured from the floor to the middle of the trap). Traps were attached to individual 3 m metal conduit poles by using a thick piece of wire threaded through a hole drilled in the conduit pole and the eyebolt attached to the top of the funnel trap. (See Seybold, S. J., Dallara, P. L., Hishinuma, S. M., and Flint, M. L. Detecting and Identifying the Walnut Twig Beetle: Monitoring Guidelines for the Invasive Vector of Thousand Cankers Disease of Walnut, University of California Agriculture and Natural Resources, Statewide Integrated Pest Management Program, 11 pp., Apr. 30, 2012.) Three blocks of treatments were installed, trap catches were collected daily during periods of high flight activity, and the treatments were re-randomized among the four trap stations within a block each time that the traps were emptied.
Statistical Analyses. Analyses of treatment effects for the tests of trap type were performed by using Friedman's non-parametric analysis of variance or a sign test, depending on the number of treatments. (See Zar, J. H. 2010. Biostatistical Analysis. 5th ed. Pearson Prentice Hall, Englewood Cliffs, N.J.) Analysis of treatment effects for the Rain•X experiment was performed by using a Wilcoxon paired sample test. Id. Multiple comparisons for experiments with more than two treatments were performed with an a posteriori Nemenyi test with experimentwise α=0.05. Id. In all cases, male and female WTB were analyzed separately. Proportions of female WTB responding to treatments were calculated and 95% confidence intervals determined by using the Clopper-Pearson method. Id.

[4] = X 15-60 mg/d, X-3 and X-2 1.76 mg/d, N=42

Structure (SMILES): CC(C)=CCO [X, 3-methyl-2-buten-1-ol]
- antennal activity by GC-EAD (P. juglandis): antenally active
- proportion of females responding (WTB [1]; 0.2 mg/d): 0.66
- trap catches, female WTB (WTB [1]; 0.2 mg/d): 623
- trap catches, male WTB (WTB [1]; 0.2 mg/d): 323
- proportion of females responding (WTB [1]; 5 mg/d (1 ml load)): 0.71
- trap catches, female WTB (WTB [1]; 5 mg/d (1 ml load)): 1084
- trap catches, male WTB (WTB [1]; 5 mg/d (1 ml load)): 453
- proportion of females responding (WTB [1]; 5 mg/d (15 ml load)): 0.72
- trap catches, female WTB (WTB [1]; 5 mg/d (15 ml load)): 1534
- trap catches, male WTB (WTB [1]; 5 mg/d (15 ml load)): 608
- proportion of females responding (WTB [1]; 165 mg/d): 0.75
- trap catches, female WTB (WTB [1]; 165 mg/d (15 ml load)): 612
- trap catches, male WTB (WTB [1]; 165 mg/d (15 ml load)): 205
- proportion of females responding (WTB [1]; 15-80 mg/d): 0.77
- trap catches, female WTB (WTB [1]; 15-80 mg/d): 934
- trap catches, male WTB (WTB [1]; 15-80 mg/d): 285
- release rate giving highest flight response (WTB [1]; six release rates compared): highest response for both sexes was to the 5 mg/d release loaded with 15 ml of pheromone
- proportion of females responding (WTB [2]): 0.77
- trap catches, female WTB (WTB [2]; [4]): 636
- trap catches, male WTB (WTB [2]; [4]): 193
- proportion of females responding (WTB [3]; 0.5 m trap): 0.76
- trap catches, female WTB (WTB [3]; 0.5 m trap): 392
- trap catches, male WTB (WTB [3]; 0.5 m trap): 125
- proportion of females responding (WTB [3]; 1.2 m trap): 0.77
- trap catches, female WTB (WTB [3]; 1.2 m trap): 469
- trap catches, male WTB (WTB [3]; 1.2 m trap): 139
- proportion of females responding (WTB [3]; 2.0 m trap): 0.77
- trap catches, female WTB (WTB [3]; 2.0 m trap): 875
- trap catches, male WTB (WTB [3]; 2.0 m trap): 265
- proportion of females responding (WTB [3]; 2.7 m trap): 0.77
- trap catches, female WTB (WTB [3]; 2.7 m trap): 757
- trap catches, male WTB (WTB [3]; 2.7 m trap): 225
